Where two headings read alike, the source gives them in different places.

The assay concerns the target T1, His-PKC-theta (Homo sapiens, UniProt Q04759).
T1 construct: His; purchased Invitrogen
The assay is described as follows: PKC-theta Assay (384-well time resolved fluorescence, IMAP TR-FRET). As to conditions: read-out: Act. Level (IC50 in the PKC-theta Assay). The class given is biochemical. As for the experimental part:
PKC-theta Assay. A 384-well time resolved fluorescence assay was used to monitor PKC-theta activity. The PKC-theta assay was run in the following assay buffer: 50 mM HEPES pH 7.6, 10 mM MgCl2, 1 mM DTT, 0.01% Triton X-100, 0.01% BSA and 0.1 mM EDTA. To initiate the reaction, 200 nM of Fam-labeled S6-derived peptide (Molecular Devices) and 10 μM of ATP were mixed with 142 pM of His-PKC-theta (Invitrogen) for a total assay volume of 25 μL in each well. The assay was incubated at room temperature for 2 hours and terminated using a 60 μL/well mixture of Detection Binding Solution: 70% IMAP Progressive Binding Buffer A, 30% IMAP Progressive Binding Buffer B, 1:600 Progressive Binding Reagent, and 1:400 TR-FRET Tb Donor (Molecular Devices). The assay plates were then incubated overnight at room temperature and read on a Perkin-Elmer Envision Reader.

T1 sequence (Q04759 whole entry): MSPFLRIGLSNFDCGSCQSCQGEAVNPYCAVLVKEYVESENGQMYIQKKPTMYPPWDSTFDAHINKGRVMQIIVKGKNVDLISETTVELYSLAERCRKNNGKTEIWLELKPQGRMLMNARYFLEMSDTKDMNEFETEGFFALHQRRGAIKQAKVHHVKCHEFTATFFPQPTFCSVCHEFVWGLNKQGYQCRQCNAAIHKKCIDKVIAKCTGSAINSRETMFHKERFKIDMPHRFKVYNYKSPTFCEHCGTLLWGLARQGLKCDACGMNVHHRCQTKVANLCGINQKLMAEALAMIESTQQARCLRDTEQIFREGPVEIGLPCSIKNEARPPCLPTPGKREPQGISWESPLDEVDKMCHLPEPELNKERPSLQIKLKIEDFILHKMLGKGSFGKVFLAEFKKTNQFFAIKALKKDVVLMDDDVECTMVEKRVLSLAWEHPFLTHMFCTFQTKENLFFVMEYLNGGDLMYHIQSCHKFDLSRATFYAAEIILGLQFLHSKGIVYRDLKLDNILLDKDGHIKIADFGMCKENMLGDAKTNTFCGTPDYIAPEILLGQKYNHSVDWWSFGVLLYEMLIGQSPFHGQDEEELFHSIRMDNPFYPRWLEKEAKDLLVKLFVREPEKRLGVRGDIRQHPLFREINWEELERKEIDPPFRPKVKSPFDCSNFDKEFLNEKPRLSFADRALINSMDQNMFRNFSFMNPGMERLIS

Turning to `CC(F)(F)COc1ncncc1CNc1ncc(C(F)(F)F)c(N[C@@H]2C[C@H](O)C2(C)C)n1` [Cmpd 13], the IC50 (as a rule, the point on the concentration scale where inhibition reaches its midpoint) was less than 100 nM.
In the case of `CC(F)(F)COc1ccc(CCNc2ncc(C#N)c(N[C@@H]3CC[C@H](O)C(C)(C)C3)n2)cc1` [Cmpd 151], under “Table 2”, the IC50 was less than 100 nM.
Turning to `CC(F)(F)COc1ncncc1CNc1ncc(C#N)c(NC23CCC(O)(CC2)CC3)n1` [Cmpd 156], the IC50 lay in the range of 800 to 2000 nM.
Turning to `N#Cc1cnc(NCc2ccc(F)cc2F)nc1N[C@H]1CC[C@@H](O)CC1` [Cmpd 20], the IC50 (Table 2) was in the range of 2000 to 10000 nM.
For the compound `CC1(C)C[C@H](Nc2nc(NCCc3ccccc3)ncc2C#N)CC[C@@H]1O` [Cmpd 150], the IC50 (Table 2) is less than 100 nM.
Consider `COc1cccc(CCNc2ncc(C#N)c(N[C@@H]3CC[C@H](O)C(C)(C)C3)n2)c1OC` [Cmpd 96], for which the IC50 (Table 2) lay in the range of 100 to 800 nM.
In the case of `N#Cc1cnc(NCCc2cccc(Cl)c2)nc1N[C@H]1CC[C@@H](O)CC1` [Cmpd 68], the IC50 (Table 2) lay within 100 to 800 nM.
For the compound `N#Cc1cnc(NCCc2cccc(F)c2)nc1N[C@H]1CC[C@@H](O)CC1` [Cmpd 198], the 50% inhibitory concentration (IC50) (Table 2) lay within 100 to 800 nM.
As to `CCc1ncncc1CNc1ncc(C#N)c(N[C@H]2C[C@H](O)C2(C)C)n1` [Cmpd 142], the IC50 lay within 800 to 2000 nM.
With `CC1(C)C[C@H](Nc2nc(NCCc3ccc(CO)cc3)ncc2C#N)CC[C@@H]1O` [Cmpd 57], under “Table 2”, the IC50 is 100 to 800 nM.
Take `CC1(C)[C@@H](O)C[C@H]1Nc1nc(NCCc2ccc(Cl)cc2Cl)ncc1C#N` [Cmpd 106]: the half-inhibitory concentration (IC50) (Table 2) was 100 to 800 nM.
`O[C@H]1CC[C@@H](Nc2nc(NCc3cncnc3-c3ccccc3)ncc2C(F)(F)F)CC1` [Cmpd 76]: the IC50 is less than 100 nM.
On the same count and under the same terms, under `C[C@]1(O)CC[C@@H](Nc2nc(NCc3cnccc3C(F)(F)F)ncc2C(F)(F)F)CC1` [Cmpd 46] stands less than 100 nM.
`CC1(C)C[C@H](Nc2nc(NCCc3cccc(Cl)c3)ncc2C#N)CC[C@@H]1O` [Cmpd 32]: where the note is “Table 2”, the IC50 is less than 100 nM.
The same measure, in the same setting: under `CC1(C)C[C@H](Nc2nc(NCCc3cc(Cl)ccc3F)ncc2C#N)CC[C@@H]1O` [Cmpd 89] stands less than 100 nM.
In the case of `Cc1cccc(Oc2ncncc2CNc2ncc(C#N)c(N[C@H]3CC[C@@H](O)CC3)n2)c1` [Cmpd 45], the IC50 is less than 100 nM.
Turning to `CC(F)(F)COc1ncncc1CNc1ncc(C#N)c(N[C@H]2CC[C@@](C)(C(N)=O)CC2)n1` [Cmpd 160], the IC50 was less than 100 nM.
Consider `Cc1nnnn1-c1ccccc1CNc1ncc(C#N)c(N[C@@H]2CC[C@@H](O)C(C)(C)C2)n1` [Cmpd 18], for which the IC50 (Table 2) fell in the range of 2000 to 10000 nM.
With `CC1(C)[C@@H](Nc2nc(NCCc3cccc(Cl)c3)ncc2C#N)C[C@@H]1C(N)=O` [Cmpd 162], the half-maximal inhibitory concentration (IC50) (Table 2) was 100 to 800 nM.
As to `CC(O)(CNc1ncc(C#N)c(N[C@@H]2CC[C@H](O)C(C)(C)C2)n1)c1ccccc1` (stereo partly drawn) [Cmpd 56], for the setting “Table 2”, the IC50 was in the range of 800 to 2000 nM.
Still for that read-out and setting: under `COc1cccc(CCNc2ncc(C#N)c(N[C@@H]3C[C@H](O)C3(C)C)n2)c1OC` [Cmpd 105] stands 800 to 2000 nM.
Consider `CC1(C)C[C@H](Nc2nc(NCc3cncnc3OCC(F)F)ncc2C#N)CC[C@@H]1O` [Cmpd 34], for which the IC50 is less than 100 nM.
Consider `CC1(C)C[C@H](Nc2nc(NCCc3cccc(C#N)c3)ncc2C#N)CC[C@@H]1O` [Cmpd 166], for which, under “Table 2”, the IC50 lay in the range of 800 to 2000 nM.
With `CCc1ncncc1CNc1ncc(C#N)c(NC2CC(C)(O)C2(C)C)n1` (stereo not drawn) [Cmpd 65], the IC50 is less than 100 nM.
As for `COc1ccc2c(CCNc3ncc(C#N)c(N[C@@H]4CC[C@H](O)C(C)(C)C4)n3)c[nH]c2c1` [Cmpd 183], the IC50 was less than 100 nM.
On to `CC1(C)C[C@H](Nc2nc(NCCn3c(=O)[nH]c4ccccc43)ncc2C#N)CC[C@@H]1O` [Cmpd 293], for which the half-inhibitory concentration (IC50) lay in the range of 2000 to 10000 nM.
Turning to `C[C@]1(O)CC[C@@H](Nc2nc(NCc3cnccc3C(F)(F)F)ncc2C#N)CC1` [Cmpd 71], the IC50 was less than 100 nM.
Regarding `COc1ccc(CCNc2ncc(C#N)c(N[C@@H]3C[C@H](O)C3(C)C)n2)cc1` [Cmpd 103], the IC50 (Table 2) was in the range of 100 to 800 nM.
Regarding `CNC(=O)c1cccc(CCNc2ncc(C#N)c(N[C@@H]3CC[C@H](O)C(C)(C)C3)n2)c1` [Cmpd 131], under “Table 2”, the IC50 fell in the range of 800 to 2000 nM.
Turning to `CC1(C)[C@@H](O)C[C@H]1Nc1nc(NCCc2ccccc2OC(F)F)ncc1C#N` [Cmpd 136], the IC50 (Table 2) was 100 to 800 nM.
As for `CC1(C)C[C@H](Nc2nc(NCCc3ccc(S(=O)(=O)C(F)(F)F)cc3)ncc2C#N)CC[C@@H]1O` [Cmpd 185], the 50% inhibitory concentration (IC50) (Table 2) was 100 to 800 nM.
In the case of `CC1(C)C[C@H](Nc2nc(NCc3cncnc3C(F)(F)F)ncc2C#N)CC[C@@H]1O` [Cmpd 43], the IC50 is less than 100 nM.
Take `CC(C)(F)c1ncncc1CNc1ncc(C#N)c(N[C@H]2CC[C@@](C)(O)CC2)n1` [Cmpd 50]: the IC50 was less than 100 nM.
Turning to `N#Cc1cnc(NCc2cnccc2C(F)(F)F)nc1N[C@H]1C[C@H](O)C1` [Cmpd 108], the IC50 was 100 to 800 nM.
`N#Cc1cnc(NCc2ccccc2N2CCOCC2)nc1N[C@H]1CC[C@@H](O)CC1` [Cmpd 13]: the concentration for half-maximal inhibition (IC50) (Table 2) is 800 to 2000 nM.
`CC1(C)[C@H](Nc2nc(NCCc3cccc(Cl)c3)ncc2C#N)C[C@H]1C(N)=O` [Cmpd 163]: the IC50 (Table 2) was in the range of 2000 to 10000 nM.
Still for that read-out and setting: under `CC1(C)C[C@H](Nc2nc(NCCc3ccc(C#N)cc3)ncc2C#N)CC[C@@H]1O` [Cmpd 37] stands 100 to 800 nM.
Regarding `O[C@H]1C[C@@H](Nc2nc(NCc3cnccc3C(F)(F)F)ncc2C(F)(F)F)C1` [Cmpd 95], the IC50 lay in the range of 100 to 800 nM.
As to `CC(C)(CNc1ncc(C#N)c(N[C@@H]2C[C@H](O)C2(C)C)n1)c1cccc(Cl)c1` [Cmpd 40], under “Table 2”, the IC50 lay within 2000 to 10000 nM.
On the same count and under the same terms, under `CC1(C)[C@@H](N)C[C@H]1Nc1nc(NCCc2cccc(Cl)c2)ncc1C#N` [Cmpd 160] stands 800 to 2000 nM.
Same read-out and setting: as for `N#Cc1cnc(NCc2ccccc2OC(F)(F)F)nc1N[C@H]1CC[C@@H](O)CC1` [Cmpd 17], the figure is 800 to 2000 nM; as for `CC1(C)[C@@H](O)C[C@H]1Nc1nc(NCCc2ccc(S(N)(=O)=O)cc2)ncc1C#N` [Cmpd 113], 100 to 800 nM; as for `COc1ccc(C(CNc2ncc(C#N)c(N[C@@H]3CC[C@H](O)C(C)(C)C3)n2)N2CCOCC2)cc1` (stereo partly drawn) [Cmpd 39], 2000 to 10000 nM.
On to `Cc1cc(C)n(-c2ccc(CCNc3ncc(C#N)c(N[C@@H]4C[C@H](O)C4(C)C)n3)cc2)n1` [Cmpd 121], for which the IC50 (Table 2) is 800 to 2000 nM.
Take `CC1(C)C[C@H](Nc2nc(NCCc3cccc4cccnc34)ncc2C#N)CC[C@@H]1O` [Cmpd 147]: the IC50 fell in the range of 100 to 800 nM.
In the case of `CC1(C)C[C@H](Nc2nc(NCCc3ccc(F)cc3)ncc2C#N)CC[C@@H]1O` [Cmpd 93], the IC50 (Table 2) lay in the range of 100 to 800 nM.
On to `O[C@H]1CC[C@@H](Nc2nc(NCc3cncnc3C(F)(F)F)ncc2C(F)(F)F)CC1` [Cmpd 81], for which the IC50 was less than 100 nM.
For the compound `CC1(C)[C@@H](O)C[C@H]1Nc1nc(NCCc2ccc(Oc3ccccc3)cc2)ncc1C#N` [Cmpd 119], the IC50 (Table 2) was in the range of 100 to 800 nM.
With `C[C@]1(O)CC[C@@H](Nc2nc(NCc3cncnc3-c3ccccc3)ncc2C(F)(F)F)CC1` [Cmpd 80], the IC50 is less than 100 nM.
As for `N#Cc1cnc(NCCc2ccc3ccccc3n2)nc1N[C@H]1CC[C@@H](O)CC1` [Cmpd 150], the IC50 lay in the range of 2000 to 10000 nM.
In the case of `CC1(C)C[C@H](Nc2nc(NCCc3ccc(C(F)(F)F)cc3)ncc2C#N)CC[C@@H]1O` [Cmpd 99], where the note is “Table 2”, the IC50 is 100 to 800 nM.
In the case of `CC1(C)C[C@H](Nc2nc(NCCc3ccc(C#N)c(OC(F)(F)F)c3)ncc2C#N)CC[C@@H]1O` [Cmpd 144], the IC50 (Table 2) was in the range of 800 to 2000 nM.
The same measure, in the same setting: under `CC1(C)C[C@H](Nc2nc(NCCc3cc(C(F)(F)F)cc(C(F)(F)F)c3)ncc2C#N)CC[C@@H]1O` [Cmpd 54] stands 800 to 2000 nM.
For `Cc1cccc(Oc2ncncc2CNc2ncc(C#N)c(N[C@H]3CC[C@@](C)(O)CC3)n2)c1` [Cmpd 38], the IC50 was less than 100 nM.
Take `CC1(C)C[C@H](Nc2nc(NCc3cncnc3C(F)(F)F)ncc2C#N)CC[C@H]1O` [Cmpd 159]: the 50% inhibitory concentration (IC50) lay in the range of 100 to 800 nM.
As for `CC1(C)C[C@H](Nc2nc(NCCc3ccccc3OC(F)F)ncc2C#N)CC[C@@H]1O` [Cmpd 132], the IC50 (Table 2) fell in the range of 100 to 800 nM.
With `CC(C)(F)c1ncncc1CNc1ncc(C(F)(F)F)c(N[C@@H]2C[C@H](O)C2(C)C)n1` [Cmpd 1], the IC50 was less than 100 nM.
In the case of `CCOc1cccc(F)c1CNc1ncc(C#N)c(N[C@H]2CC[C@@H](O)CC2)n1` [Cmpd 23], under “Table 2”, the IC50 fell in the range of 2000 to 10000 nM.
`Cc1cnccc1CCNc1ncc(C#N)c(N[C@H]2CC[C@@H](O)CC2)n1` [Cmpd 152]: the IC50 lay within 2000 to 10000 nM.
For `CCc1ccc2c(c1)C(CCNc1ncc(C#N)c(N[C@@H]3C[C@H](O)C3(C)C)n1)C(=O)N2` (stereo partly drawn) [Cmpd 261], the IC50 is less than 100 nM.
Regarding `Cc1ccc(Oc2ncncc2CNc2ncc(C#N)c(N[C@H]3CC[C@@](C)(O)CC3)n2)cc1` [Cmpd 28], the IC50 is less than 100 nM.
For the compound `CC1(C)C(O)C(C)(C)C1Nc1nc(NCc2cnccc2C(F)(F)F)ncc1C#N` (stereo not drawn) [Cmpd 130], the IC50 lay in the range of 100 to 800 nM.
For the compound `N#Cc1cnc(NCc2ccccc2C(F)(F)F)nc1N[C@H]1CC[C@@H](O)CC1` [Cmpd 8], the IC50 (Table 2) was 100 to 800 nM.
On to `Cc1c(CO)cccc1Nc1nc(NCc2cnccc2C(F)(F)F)ncc1C#N` [Cmpd 7], for which the IC50 (Table 2) fell in the range of 100 to 800 nM.
On the same count and under the same terms, under `CC1(C)C[C@H](Nc2nc(NCCc3ccc(N4CCCCC4)cc3)ncc2C#N)CC[C@@H]1O` [Cmpd 83] stands 100 to 800 nM.
`CC1(C)C[C@H](Nc2nc(NCCC3C(=O)Nc4ccccc43)ncc2C#N)CC[C@@H]1O` (stereo partly drawn) [Cmpd 247]: the IC50 is less than 100 nM.
On to `CC1(C)C[C@@H](O)CC[C@@H]1Nc1nc(NCCc2cccc(Cl)c2)ncc1C#N` [Cmpd 187], for which the IC50 (Table 2) was 2000 to 10000 nM.
Regarding `CC1(C)C[C@H](Nc2nc(NCCc3ccc(C#N)c(Br)c3)ncc2C#N)CC[C@@H]1O` [Cmpd 146], under “Table 2”, the IC50 was less than 100 nM.
Turning to `Cc1cc(C)n(CCNc2ncc(C#N)c(N[C@@H]3CC[C@H](O)C(C)(C)C3)n2)n1` [Cmpd 198], the IC50 was in the range of 2000 to 10000 nM.

(Values after patent US9783505B2, “Substituted diaminopyrimidyl compounds, compositions thereof, and methods of treatment therewith” (Signal Pharmaceuticals, LLC, priority 2013, dated 2017).)
